This is an account of results in patent US20150118726A1, “Processes Using Antibiotic Alternatives In Bioethanol Production” (Buckman Laboratories International, Inc., priority 2010, published 2015).

Data set [1] is described as follows: Persistence of DBNPA under fermentation tank conditions. Conditions: under the conditions in the fermentation tank, based on laboratory work. It is filed as physicochemical. The procedure:
Under the conditions in the fermentation tank, DBNPA is expected to last intact only about 1-2 hours, based on laboratory work. The stillage, i.e., fermented unevaporated product (post “beer tank”) of distillation, is centrifuged, and dried (e.g., about 1 hour at about 250-300° F.), then the mixture is pumped over to a final tank where it is called the DDGS. DDGS is about ⅓ mass of the starting raw material for corn. The chemistry of DBNPA is not expected to endure and survive the centrifugation and heat of drying prior to entering distillers dried grains with solubles (DDGS) stage. In the corn-to-ethanol process, for example, DBNPA is expected to degrade to carbon dioxide and water vapor, and, as such, would have low environmental impact. […] The application of DBNPA avoids the use of antibiotics, which can remain stable throughout the process. The use of DBNPA makes the use of antibiotics unnecessary. The use of DBNPA is more economical since the cost of antibiotics (as the only treatment widely employed) can be relatively high and costly to the fermentation. […]

The next data set has as its system Saccharomyces cereviseae. The data set can be described thus: Corn mash ethanol fermentation: effect of biocide on yeast / fermentation progress. The data set is classed as cell-based, Saccharomyces cerevisiae. The procedure:
(§1) Experiments were conducted to evaluate the effectiveness of a nonoxidizing biocide as an antimicrobial agent for control of Lactobacillus infections in ethanol fermentation. The nonoxidizing biocide was BRONAM® 20 (20% 2,2-dibromo-3-nitrilopropionamide). The lactobacilli was L. plantarum. The yeast was Saccharomyces cereviseae. Corn mashes containing approximately 30% (w/w) dry solids were used.
A 0.2-g/ml suspension of yeast (Saccharomyces cerevisiae; Ethanol Red; Fermentis, Marcq-en-Baroeul, France) was prepared in a sterile 250-ml flask. This suspension was incubated and mixed for 20 minutes at 40° C. before inoculation into the fermentation flasks. Each fermentation flask was inoculated with 160 μl of the yeast suspension to attain an initial concentration of 10^7 yeast cells/ml. After the initial 1-hr incubation with bacteria, the flasks were inoculated with yeast and dosed with BRONAM® 20. […]
The mass of each flask was recorded after all additions were made, and the sanitized fermentation traps were reinserted into each flask. The mass of each flask with the trap in place was also recorded. […] The mass of each flask with the traps in place were measured periodically throughout fermentation to estimate the rate of fermentation (the mass of the fermentation flasks decreases when carbon dioxide is lost by bubbling out of the fermentation traps). […]

For the next data set, the system named is L. plantarum. Put plainly: Corn mash ethanol fermentation infected with L. plantarum, treated with nonoxidizing biocide. Conditions: based on experimental results. The data set is classed as cell-based, Lactobacillus plantarum. The procedure:
as §1
For slurry preparation, the moisture of ground corn was determined gravimetrically using a moisture balance by measuring the mass loss that occurred upon drying. The amount of corn, deionized (DI) water, and enzyme needed to prepare 160 g of corn slurry at a total dry solids concentration of 30% (w/w) for each replicate was determined. […]
For fermentation, once the mash was cooled, the entire contents (approximately 160 g) of each Labomat beaker were transferred to a sterile 250-ml Erlenmeyer flask. The masses of the mash and flasks were recorded, and the mass of mash transferred to the fermentation flasks was calculated. […]
The L. plantarum culture was prepared for inoculation by growing throughout the day in 100-ml of MRS broth. […] The initial concentration of the bacteria was determined by plating serial dilutions of the culture on MRS agar containing cycloheximide and incubating at 32° C. for 2 days before counting colonies. […]

In the next data set the test system is Lactobacillus fermentans. Put plainly: MRS broth test of biocide combinations (Kull synergism method). The data set is classed as cell-based. To be noted: 25% MRS broth, 37° C., 24 hours. The procedure: Lactobacilli MRS broth (25% strength) was prepared and dispensed in 10 ml amounts into test tubes and autoclaved for 20 minutes at 121° C. The biocides were added to the test tubes in the desired concentrations, and then 100 microliters of an overnight broth of Lactobacillus fermentans were added to the respective test tubes and incubated at 37° C. for 24 hours.
QA/Qa+QB/Qb is less than 1.
Qa=Concentration of Compound A in parts per million, acting alone, which produced an endpoint; Qb=Concentration of Compound B in parts per million, acting alone, which produced an endpoint; QA=Concentration of Compound A in parts per million, in the mixture, which produced an endpoint; QB=Concentration of Compound B in parts per million, in the mixture, which produced an endpoint.
When the sum of QA/Qa and QB/Qb is greater than one, antagonism is indicated and when the sum is equal to one, additivity is indicated. When the sum of this value is less than one, synergism exists.

`N#CC(Br)(Br)C(N)=O` [2,2-dibromo-3-nitrilopropionamide]: the “time DBNPA lasts intact” value in data set [1] was 1 to 2 h. Moreover, the “effect on yeast involved in fermentation” value in the data set on Saccharomyces cereviseae was “does not kill the yeast”. For the same molecule, the “effect on bacteria (lactobacilli)” value with L. plantarum is given as “kills the bacteria”. The “Qb, concentration of Compound B acting alone which produced an endpoint” value in the data set with Lactobacillus fermentans (Example 3) stood at 100 ppm.

For `O=[N+]([O-])C(Br)(CO)CO` [2-bromo-2-nitropropane-1,3-diol], the “Qb, concentration of Compound B acting alone which produced an endpoint” value in the data set with Lactobacillus fermentans (Example 2) was determined as 50 ppm.

For Nisin, the “Qa, concentration of Compound A acting alone which produced an endpoint” value with Lactobacillus fermentans (Example 2) and with Lactobacillus fermentans (Example 3) was 1.0 ppm in each case.
